Results taken from patent publication US20040115800A1, “Selectable marker for genetically engineered cells and tissues” (priority 2003, published 2004).

Columns and labels:
[1] = system: primary human lymphocytes transduced with CD-IRES-EGFP; experiment: Growth suppression assay (trypan blue), CD gene-modified lymphocytes; format: cell-based; details: two weeks
Excerpt: (§1) Primary human lymphocytes were isolated from peripheral blood by Ficoll Hypaque™ centrifugation and plated at a cell density of ˜1×10^6 cells/ml in RPMI supplemented with 10% FBS, 50 U/ml Pen/Strep, and 200 U/ml human IL-2. The next day, lymphocytes were activated with phytohemagglutinin (PHA) for 72 hrs and subsequently co-cultivated over subconfluent 293GPG-CD-IRES-EGFP or control 293GPG-IRES-EGFP virus producers tetracycline withdrawn three days earlier for optimal high titer virion generation. Lipofectaminel was added for a final concentration of 6 μg/ml, and co-cultivation permitted to proceed for 48 hours. Lymphocytes were then carefully collected and three days later plated at a density of 600 000 cells per well of 48-well tissue culture dishes in the absence or presence of various concentrations of ARA-C in a final volume of 800 μl) complete media. After a two week period, viable cells were enumerated by trypan blue exclusion and cell survival measured as such: % cell survival=(number of cells in test well/number of cells grown in media only)×100. (Flow cytometry analysis for CD3 expression was conducted and all cells confirmed to be lymphocytes.)

[2] = system: 2.5 μM ARA-C selected A549-CD-IRES-EGFP cells; experiment: Growth inhibition assay (MTT), ARA-C-selected CD gene-modified A549 cells; format: cell-based, human; details: 4 days
Procedure: (§2) . […] Five days following the last transduction round, flow cytometry analysis was performed to determine gene transfer efficiency and transgene expression as evaluated by GFP fluorescence. Stably transduced A549-CD-IRES-EGFP cells were subsequently expanded in complete media only, as well as in the presence of two different concentrations of ARA-C, 1 μM and 2.5 μM, for 12 days.
(§3) Gene-modified A549 cells were plated in 96-well flat-bottom tissue culture dishes at a density of 1500 cells per well. Various concentrations of ARA-C or dFdC (Lilly Research Laboratories, Indianapolis, Ind.) were added to cells in a final volume of 100 μl RPMI/10% FBS. Cells were placed at 37° C. and 4 days later exposed to 20 μl of a solution containing 3-(4,5-deimethylthiazol-2-yl)-2,5-diphenyltetrazolium bromide, i.e. MTT, for 4 hours at 37° C., and subsequently to 100 μl of a solubilization buffer (50% N,N-dimethylformamide, 20% SDS) for approximately 15 hours. The optical density was then measured at 570 nm with reference at 630 nm using a multi-well plate reader, thus providing an assessment of the percentage of surviving cells based on the cleavage of MTT by the mitochondrial dehydrogenases of living cells to the detectable formazan. Percent cell survival was ascertained using the following equation: [formula]

untransduced A549 cells = experiment: Growth inhibition assay (MTT), parental A549 cells; format: cell-based, human; details: 4 days
Procedure: A549 human lung carcinoma cells, obtained from American Type Culture Collection (ATCC), were maintained in RPMI 1640 medium (Canadian Life Technologies) supplemented with 10% heat-inactivated FBS.
as §3

[3] = system: primary mouse marrow stromal cells; experiment: In vitro selection and enrichment assay of CD gene-modified marrow stroma (flow cytometry); format: cell-based; details: for % GFP+ cells: 10% CD-IRES-EGFP stroma mixture (11.7% without ARA-C); for mean GFP fluorescence: 10% CD-IRES-EGFP stroma mixture (13.0±3.0 without ARA-C)
Procedure: One female C57BI/6 mouse was sacrificed by CO2 inhalation and bone marrow cells harvested by flushing the hind leg femurs and tibias with DMEM™ supplemented with 10% FBS and 50 U/ml Pen/Strep. Whole marrow was plated in 10 cm (diameter) tissue culture dishes and five days later, the nonadherent hematopoietic cells were discarded and the adherent bone marrow stromal cells cultured (for ˜3 months) at 37° C. with 5% CO2. Supernatant containing virions from subconfluent GP+envAM12-CD-IRES-EGFP or from control GP+envAM12-Neo^R-IRES-EGFP producers was placed over marrow stromal cells plated at subconfluence. Transduction was carried out twice a day for three successive days in the presence of 6 μg/ml Lipofectamine™. Over 72 hours pursuing to the last transduction round, flow cytometry analysis for GFP expression was performed to evaluate the gene transfer efficiency.
Drug exposure was ceased 7 days later, and cells expanded for an additional week in DMEMI with 10% FBS and 50U/ml Pen/Strep and analysed by flow cytometry analysis. […] Pursuant to a 1-week drug exposure (preventing total confluence by cell passaging) and subsequent week of cell expansion, percent GFP positive cells and mean GFP fluorescence were evaluated by flow cytometry analysis.

A549-CD-IRES-EGFP cells = experiment: Growth inhibition assay (MTT), CD gene-modified A549 cells; format: cell-based, human; details: for % cell survival: 4 days, MTT
Procedure: as §2, §3

[4] = system: primary human lymphocytes transduced with IRES-EGFP; experiment: Growth suppression assay (trypan blue), control-vector lymphocytes; format: cell-based; details: two weeks
Excerpt: as §1

A549-IRES-EGFP cells = experiment: Growth inhibition assay (MTT), control-vector A549 cells; format: cell-based, human; details: 4 days
Procedure: as §2, §3

In the case of Nc1ccn([C@@H]2O[C@H](CO)[C@@H](O)[C@@H]2O)c(=O)n1 [ARA-C, cytosine arabinoside], the “% cell survival” value ([1]; ARA-C 1 μM) is reported as 87.5±7.2%, the “% cell survival” value ([1]; ARA-C 5 μM) is reported as 98.1 ± 4.2% and the “% cell survival” value ([2]; ARA-C 1 μM, CD-modified A549 previously selected in 2.5 μM ARA-C for 12 days, MTT) is reported as 70.7±1.3%. For the same compound, the “% cell survival” value (untransduced A549 cells; ARA-C 1 μM, untransduced A549, MTT) was 15.3±0.6%, the “% GFP+ cells” value ([3]; 0.25 μM ARA-C 1 week + 1 week culture) was 51.5% and the “% GFP+ cells” value ([3]; 2.5 μM ARA-C 1 week + 1 week culture) was 99.6%. For the same compound, the “effect on untransduced and NeoR-IRES-EGFP modified stroma” value ([3]; ARA-C 2.5 μM (printed 2.5 CM)) was “completely eradicate”, the “mean GFP fluorescence” value ([3]; selected in 1 μM ARA-C) was 48.3±6.5 and the “mean GFP fluorescence” value ([3]; selected in 2.5 μM ARA-C) was 99.3±3.3. The “survival of A549-CD-IRES-EGFP relative to control cells” value (A549-CD-IRES-EGFP cells; ARA-C 1 μM) was “over 3 fold”, the “% cell survival” value (A549-CD-IRES-EGFP cells; ARA-C 1 μM, A549-CD-IRES-EGFP without post-transduction drug selection) was 47.4±1.9% and the “% cell survival” value ([4]; ARA-C 1 μM, IRES-EGFP transduced lymphocytes) was 5.5±1.7%. The “% cell survival” value ([4]; ARA-C 5 μM, IRES-EGFP-modified lymphocytes) was 0.1±0.1% and the “% cell survival” value (A549-IRES-EGFP cells; ARA-C 1 μM) was 10.6±0.4%.

Nc1ccn([C@@H]2O[C@H](CO)[C@@H](O)C2(F)F)c(=O)n1 [dFdC] was tested, and the “% cell survival” value ([2]; dFdC 0.1 μM, 2.5 μM ARA-C selected CD-IRES-EGFP modified A549, MTT) was 92.1±1.7%, the “% cell survival” value ([2]; dFdC 1 μM, 2.5 μM ARA-C selected cells, MTT) was 53.3±1.8% and the “% cell survival” value (untransduced A549 cells; dFdC 0.1M (so in the source), A549, MTT) was 15.1±0.5%. The “% cell survival” value (A549-CD-IRES-EGFP cells; dFdC 1 μM, unselected A549-CD-IRES-EGFP) was 17.2±0.7%, the “% cell survival” value (A549-CD-IRES-EGFP cells; dFdC same concentration (0.1), A549-CD-IRES-EGFP unselected) was 86.4±2.4% and the “% cell survival” value (A549-IRES-EGFP cells; dFdC 0.1M (so in the source)) was 10.7±0.4%.
